Data reported in patent US7192924B2, “Corticotropin releasing factor 2 receptor agonists” (priority 2002, dated 2007).
Peptide text beside a SMILES is read from it.

Legend:
CRF2R = biological target: T1, CRF2R (Homo sapiens, UniProt Q13324); assay: CRF2R agonist activity (EC50, Emax), called comparative CRF binding; format: cell-based; conditions: read-out: CRF2R EC50
T1 sequence (Q13324 1-411): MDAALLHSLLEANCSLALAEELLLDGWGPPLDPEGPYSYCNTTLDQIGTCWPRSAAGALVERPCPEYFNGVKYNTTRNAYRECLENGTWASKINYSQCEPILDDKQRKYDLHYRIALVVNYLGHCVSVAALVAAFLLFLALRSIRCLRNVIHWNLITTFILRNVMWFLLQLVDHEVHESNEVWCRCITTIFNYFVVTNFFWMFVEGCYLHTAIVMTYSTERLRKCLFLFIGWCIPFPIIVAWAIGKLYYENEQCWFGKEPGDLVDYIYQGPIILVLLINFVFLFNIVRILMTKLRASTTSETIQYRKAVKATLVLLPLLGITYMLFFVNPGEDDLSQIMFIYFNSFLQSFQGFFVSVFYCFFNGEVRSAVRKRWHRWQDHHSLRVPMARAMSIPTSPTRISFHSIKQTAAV
Outline: (§1)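 Recombinant CRF1R or CRF2R cells were exposed to peptide. Reporter expression linked to cAMP response element was then quantitated, relative to vehicle control.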

CRF1R = biological target: T2, CRF1R (Homo sapiens, UniProt P34998); assay: CRF1R agonist activity (EC50, Emax), called comparative CRF binding; format: cell-based; conditions: read-out: CRF1R EC50
T2 sequence (P34998 24-415): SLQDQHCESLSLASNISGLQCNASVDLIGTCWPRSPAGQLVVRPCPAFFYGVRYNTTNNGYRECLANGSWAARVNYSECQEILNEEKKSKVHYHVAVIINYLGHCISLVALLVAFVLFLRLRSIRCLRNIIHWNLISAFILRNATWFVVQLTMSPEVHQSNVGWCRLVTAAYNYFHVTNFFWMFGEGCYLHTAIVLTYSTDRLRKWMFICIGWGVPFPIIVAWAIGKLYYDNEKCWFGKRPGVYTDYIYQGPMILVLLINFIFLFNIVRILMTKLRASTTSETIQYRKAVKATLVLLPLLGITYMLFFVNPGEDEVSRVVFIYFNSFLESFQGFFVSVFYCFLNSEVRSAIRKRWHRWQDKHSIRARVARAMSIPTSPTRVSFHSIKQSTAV
Outline: as §1

Structure (SMILES) | EC50 (CRF2R) | EC50 (CRF1R)
CC[C@H](C)[C@H](N)C(=O)N[C@H](C(=O)N[C@@H](CC(C)C)C(=O)N[C@@H](CO)C(=O)N[C@@H](CC(C)C)C(=O)N[C@@H](CC(=O)O)C(=O)N[C@H](C(=O)N1CCC[C@H]1C(=O)N[C@H](C(=O)NCC(=O)N[C@@H](CC(C)C)C(=O)N[C@@H](CC(C)C)C(=O)N[C@@H](CCC(N)=O)C(=O)N[C@H](C(=O)N[C@@H](CC(C)C)C(=O)N[C@@H](CC(C)C)C(=O)N[C@@H](CCC(=O)O)C(=O)N[C@@H](CCC(N)=O)C(=O)N[C@@H](CCC(=O)O)C(=O)N[C@@H](CCCCN)C(=O)N[C@@H](CCC(N)=O)C(=O)N[C@@H](CCC(=O)O)C(=O)N[C@@H](CCCCN)C(=O)N[C@@H](CCC(=O)O)C(=O)N[C@@H](CCCCN)C(=O)N[C@@H](CCC(N)=O)C(=O)N[C@@H](CCC(N)=O)C(=O)N[C@@H](C)C(=O)N[C@H](C(=O)N[C@H](C(=O)N[C@@H](CC(N)=O)C(=O)N[C@@H](C)C(=O)N[C@@H](CCCNC(=N)N)C(=O)N[C@H](C(=O)N[C@@H](CC(C)C)C(=O)N[C@@H](C)C(=O)N[C@@H](CCCNC(=N)N)C(=O)N[C@H](C(N)=O)C(C)C)[C@@H](C)CC)[C@@H](C)O)[C@@H](C)O)[C@@H](C)CC)[C@@H](C)CC)C(C)C)C(C)C [compound 167] (H-IVLSLDVPIGLLQILLEQEKQEKEKQQATTNARILARV-NH2; N-terminus assumed) | 0.013 µM | ≥ 1 µM
CC[C@H](C)[C@H](NC(=O)[C@H](C)NC(=O)[C@H](CC(N)=O)NC(=O)[C@H](CCC(N)=O)NC(=O)[C@H](CCC(=O)O)NC(=O)[C@H](C)NC(=O)[C@H](CCCNC(=N)N)NC(=O)[C@H](CCC(=O)O)NC(=O)[C@H](CCCNC(=N)N)NC(=O)[C@H](CCC(N)=O)NC(=O)[C@H](CO)NC(=O)[C@H](CCC(N)=O)NC(=O)[C@@H](NC(=O)[C@H](CCCNC(=N)N)NC(=O)[C@H](C)NC(=O)[C@H](CC(C)C)NC(=O)[C@H](CCC(=O)O)NC(=O)[C@H](CC(C)C)NC(=O)[C@H](CC(C)C)NC(=O)[C@@H](NC(=O)[C@H](CCCNC(=N)N)NC(=O)[C@H](CC(C)C)NC(=O)[C@H](CC(C)C)NC(=O)[C@H](CC(C)C)NC(=O)[C@H](CC(C)C)NC(=O)[C@@H]1CCCN1C(=O)[C@H](CC(C)C)NC(=O)[C@H](CC(=O)O)NC(=O)[C@@H](NC(=O)[C@H](CO)NC(=O)[C@H](CC(C)C)NC(=O)[C@H](CO)NC(=O)[C@@H]1CCCN1C(=O)[C@H](CC(N)=O)NC(=O)[C@@H](N)CC(=O)O)[C@@H](C)CC)[C@@H](C)O)[C@@H](C)O)C(=O)N[C@H](C(=O)N[C@@H](Cc1ccccc1)C(=O)N[C@@H](C)C(=O)N[C@@H](CO)C(=O)N[C@H](C(N)=O)C(C)C)[C@@H](C)CC [compound 174] (H-DNPSLSIDLPLLLLRTLLELARTQSQRERAEQNAIIFASV-NH2; N-terminus assumed) | 0.00442 µM | ≥ 1 µM
CC[C@H](C)[C@H](NC(=O)[C@H](C)NC(=O)[C@H](CC(N)=O)NC(=O)[C@H](CCC(N)=O)NC(=O)[C@H](CCC(=O)O)NC(=O)[C@H](C)NC(=O)[C@H](CCCNC(=N)N)NC(=O)[C@H](CCC(=O)O)NC(=O)[C@H](CCCNC(=N)N)NC(=O)[C@H](CCC(N)=O)NC(=O)[C@H](CO)NC(=O)[C@H](CCC(N)=O)NC(=O)[C@@H](NC(=O)[C@H](CCCNC(=N)N)NC(=O)[C@H](C)NC(=O)[C@H](CC(C)C)NC(=O)[C@H](CCC(=O)O)NC(=O)[C@H](CC(C)C)NC(=O)[C@H](CC(C)C)NC(=O)[C@@H](NC(=O)[C@H](CCCNC(=N)N)NC(=O)[C@H](CC(C)C)NC(=O)[C@H](CC(C)C)NC(=O)[C@H](CCC(N)=O)NC(=O)[C@H](CC(C)C)NC(=O)[C@@H]1CCCN1C(=O)[C@H](CC(C)C)NC(=O)[C@H](CC(=O)O)NC(=O)[C@@H](NC(=O)[C@H](CO)NC(=O)[C@H](CC(C)C)NC(=O)[C@H](CO)NC(=O)[C@@H]1CCCN1C(=O)[C@H](CC(N)=O)NC(=O)[C@@H](N)CC(=O)O)[C@@H](C)CC)[C@@H](C)O)[C@@H](C)O)C(=O)N[C@H](C(=O)N[C@@H](Cc1ccccc1)C(=O)N[C@@H](C)C(=O)N[C@@H](CO)C(=O)N[C@H](C(N)=O)C(C)C)[C@@H](C)CC [compound 176] (H-DNPSLSIDLPLQLLRTLLELARTQSQRERAEQNAIIFASV-NH2; N-terminus assumed) | 0.0126 µM | ≥ 1 µM
CC[C@H](C)[C@H](NC(=O)[C@H](C)NC(=O)[C@H](CC(N)=O)NC(=O)[C@H](CCC(N)=O)NC(=O)[C@H](CCC(=O)O)NC(=O)[C@H](C)NC(=O)[C@H](CCCNC(=N)N)NC(=O)[C@H](CCC(=O)O)NC(=O)[C@H](CCCNC(=N)N)NC(=O)[C@H](CCC(N)=O)NC(=O)[C@H](CO)NC(=O)[C@H](CCC(N)=O)NC(=O)[C@@H](NC(=O)[C@H](CCCNC(=N)N)NC(=O)[C@H](C)NC(=O)[C@H](CC(C)C)NC(=O)[C@H](CCC(=O)O)NC(=O)[C@H](CC(C)C)NC(=O)[C@H](CC(C)C)NC(=O)[C@@H](NC(=O)[C@H](CCCNC(=N)N)NC(=O)[C@H](CC(C)C)NC(=O)[C@H](CC(C)C)NC(=O)[C@H](Cc1ccc(O)cc1)NC(=O)[C@H](CC(C)C)NC(=O)[C@@H]1CCCN1C(=O)[C@H](CC(C)C)NC(=O)[C@H](CC(=O)O)NC(=O)[C@@H](NC(=O)[C@H](CO)NC(=O)[C@H](CC(C)C)NC(=O)[C@H](CO)NC(=O)[C@@H]1CCCN1C(=O)[C@H](CC(N)=O)NC(=O)[C@@H](N)CC(=O)O)[C@@H](C)CC)[C@@H](C)O)[C@@H](C)O)C(=O)N[C@H](C(=O)N[C@@H](Cc1ccccc1)C(=O)N[C@@H](C)C(=O)N[C@@H](CO)C(=O)N[C@H](C(N)=O)C(C)C)[C@@H](C)CC [compound 177] (H-DNPSLSIDLPLYLLRTLLELARTQSQRERAEQNAIIFASV-NH2; N-terminus assumed) | 0.00563 µM | 0.613 µM
CC[C@H](C)[C@H](NC(=O)[C@H](C)NC(=O)[C@H](CC(N)=O)NC(=O)[C@H](CCC(N)=O)NC(=O)[C@H](CCC(=O)O)NC(=O)[C@H](C)NC(=O)[C@H](CCCNC(=N)N)NC(=O)[C@H](CCC(=O)O)NC(=O)[C@H](CCCNC(=N)N)NC(=O)[C@H](CCC(N)=O)NC(=O)[C@H](CO)NC(=O)[C@H](CCC(N)=O)NC(=O)[C@@H](NC(=O)[C@H](CCCNC(=N)N)NC(=O)[C@H](C)NC(=O)[C@H](CC(C)C)NC(=O)[C@H](CCC(=O)O)NC(=O)[C@H](CC(C)C)NC(=O)[C@H](CC(C)C)NC(=O)[C@@H](NC(=O)[C@H](CCCNC(=N)N)NC(=O)[C@H](CC(C)C)NC(=O)[C@H](CC(C)C)NC(=O)[C@H](Cc1ccccc1)NC(=O)[C@H](CC(C)C)NC(=O)[C@@H]1CCCN1C(=O)[C@H](CC(C)C)NC(=O)[C@H](CC(=O)O)NC(=O)[C@@H](NC(=O)[C@H](CO)NC(=O)[C@H](CC(C)C)NC(=O)[C@H](CO)NC(=O)[C@@H]1CCCN1C(=O)[C@H](CC(N)=O)NC(=O)[C@@H](N)CC(=O)O)[C@@H](C)CC)[C@@H](C)O)[C@@H](C)O)C(=O)N[C@H](C(=O)N[C@@H](Cc1ccccc1)C(=O)N[C@@H](C)C(=O)N[C@@H](CO)C(=O)N[C@H](C(N)=O)C(C)C)[C@@H](C)CC [compound 178] (H-DNPSLSIDLPLFLLRTLLELARTQSQRERAEQNAIIFASV-NH2; N-terminus assumed) | 0.00517 µM | ≥ 1 µM
